Assay results as given in patent USRE39707E1, “Camptothecin derivatives” (Catholic Healthcare West, priority 2001, dated 2007).

What was measured:
[1] = test system: VM46; test: Cell colony formation assay, VM46 cells; format: cell-based; conditions: 72 hours drug exposure
Procedure: (§1) This example provides directions for growing cells and testing compounds of the invention for their effect on the growth of the cells. All cells were purchased from DCIDC Tumor Repository, NCI, NIH.
(§2) Four hundred cells (HCT 116, PC-3, NCI/ADR-RES: human breast cancer cells) or five hundred cells (VM46) were plated in 60 mm Petri dishes containing 2.7 ml of medium (modified McCoy's 5a medium) containing 10% fetal bovine serum and 100 units/ml penicillin and 100 mg/ml streptomycin. The cells were incubated in a CO2 incubator at 37° C. for 5 hours for attachment to the bottom of Petri dishes. Drugs were made fresh in medium at ten times the final concentration, and then 0.3 ml of this stock solution was added to the 2.7 ml of medium in the dish. The cells were then incubated with drugs for 72 hours at 37° C. At the end of the incubation the drug-containing media were decanted, the dishes were rinsed with 4 ml of Hank's Balance Salt Solution (HBSS), 5 ml of fresh medium was added, and the dishes were returned to the incubator for colony formation. The cell colonies were counted using colony counter after incubation for 7 days for HCT116 cells and PC-3 cells and 8 days for VM46 cells, respectively.
(§3) Values of ID50 (the drug concentration producing 50% inhibition of colony formation) may be determined for each tested compound. The directions described in this example may be used in other cells, such as DU-145.

[2] = test system: PC-3; test: Cell colony formation assay, PC-3 cells; format: cell-based, human; conditions: 72 hours drug exposure
Procedure: as §1, §2, §3

[3] = test system: HCT116; test: Cell colony formation assay, HCT116 cells; format: cell-based, human; conditions: 72 hours drug exposure
Procedure: as §1
as §2, with “The” for “Four hundred cells (HCT 116, PC-3, NCI/ADR-RES: human breast cancer cells) or five hundred cells (VM46) were plated in 60 mm Petri dishes containing 2.7 ml of medium (modified McCoy's 5a medium) containing 10% fetal bovine serum and 100 units/ml penicillin and 100 mg/ml streptomycin. The”

[4] = test system: C3H/HeJ mice; conditions: maximum tolerated dose at day 40, C3H/HeJ mice
Procedure: This example provides directions for performing in vivo toxicity tests of the compounds of the invention on C3H/HeJ mice.
Acute toxicities of the compounds of this invention are evaluated on C3H/HeJ mice (body weight 18-22 g). The MTD40 (maximum tolerated dose at day 40) values were determined by the standard procedure described by Gad and Chengelis (see, for example, “Acute Toxicology Testing,” 2nd Ed., Shayne O. Gad and Christopher P. Chengelis, pp. 186-195 (Academic Press)). In the consecutive type studies, 2 mice were dosed at low and moderate doses of 40 and 100 mg/kg. If no severe and irreversible toxicity (euthanasia is required) occurs at these doses, a new pair of animals was initiated at 180 mg/kg, which is 1.8 times higher than 100 mg/kg. Sequential dosages (about 3 doses on 3 pairs of animals, i.e. 2 mice for each drug dose) were increased by a factor of 1.8 until severe and irreversible toxicity (euthanasia is required) occurred. Then another pair of animals was initiated at the highest nonlethal dosage, and successive dosages were increased by a factor of 1.15. The result of this exercise was two dosages, one apparently nonlethal and the other lethal if severe and irreversible toxicity occurs and euthanasia is required, separated by a factor of 1.15. Six mice were dosed at each dosage. If no severe and irreversible toxicity occurred at the lower dosage and at least one with severe and irreversible toxicity occurred at the higher dose, then the lower dose was considered to be the MTD. The compounds of this invention were administered to C3H/HeJ mice by intraperitoneal injection. Drug toxicity was evaluated on mice checked daily for 45 days.

[5] = test system: MTG-B mouse mammary Adenocarcinoma; test: In vivo efficacy in C3H/HeJ mice bearing MTG-B tumors; conditions: for T (Surviving days after treatment of MTG-B mouse mammary Adenocarcinoma In C3H/Hej mice): i.p., control mice survived 6 days; for CD/Taxol: ratio of extra days of survival with compound to extra days of survival with taxol, each compared to control; for T/C %: surviving days treated / surviving days control x 100%, control 6 days
Procedure: This example provides directions for performing in vivo efficacy tests of the compounds of the invention on C3H/HeJ mice bearing MTG-B tumors.
Studies on the compounds of this invention were performed on C3H/HeJ mice bearing […] tumors. […] Treatment was initiated at that time, with the first day of treatment designated as day 0 for calculation and plots. The mice were injected i.p. with thee drug dose levels (⅓, ½, 1×MTD) using both a single injection and the schedule of Q2D×3 (every 2 days for a total of 3 treatments at ⅓ MTD). Control groups of mice bearing 8 mm diameter tumors were treated with vehicle alone. […] When a tumor reached 1.5 g, the mouse bearing the tumor was euthanized. Surviving days measured from day 0 for mice treated with anticancer drugs (T) and surviving days measured from day 0 for control mice (C) were recorded. Tumor growth inhibition values (T/C %) were calculated using the formula T/C %=(surviving days of mice treated with an anticancer drug T/surviving days of control mice C)×100%, as shown in Table II.
The final right-hand column in Table II provides a ratio of the extra days of survival of mice treated with the compounds of the invention (compared to control) to the extra days of survival of mice treated with taxol (compared to control).

Structure (SMILES) | In vitro efficacy: Survival (%) of cells line VM46 ([1]; 1 nM) [%] | In vitro efficacy: Survival (%) of cells line VM46 ([1]; 10 nM) [%] | In vitro efficacy: Survival (%) of cells line PC-3 ([2]; 1 nM) [%] | In vitro efficacy: Survival (%) of cells line PC-3 ([2]; 5 nM) [%] | In Vitro Efficacy: Survival (%) of HCT116 ([3]; 1 nM) [%] | In Vitro Efficacy: Survival (%) of HCT116 ([3]; 10 nM) [%] | In Vitro Efficacy: Survival (%) of HCT116 ([3]; 100 nM) [%] | In Vivo Toxicity MTD40 (ip, mg/kg) in C3H/Hej Mice [4] [mg/kg] | T (Surviving days after treatment of MTG-B mouse mammary Adenocarcinoma In C3H/Hej mice) [5] [days] | CD/Taxol [5] | T/C % [5] [%]
CCC1(OC(=O)COc2c(F)c(F)c(F)c(F)c2F)C(=O)OCc2c1cc1n(c2=O)Cc2cc3ccccc3nc2-1 (centres unmarked) [Example 000410, Camptothecin-20-O-ester of 2,3,4,5,6-pentafluorophenoxyacetic acid] | 68.75 | 0 | 93.31 | 23.33 | 88.96 | 0 | 0 | 45 | 12 | 2.0 | 200
CCC1(OC(=O)COc2ccc(C=O)cc2)C(=O)OCc2c1cc1n(c2=O)Cc2cc3ccccc3nc2-1 (centres unmarked) [Example 000313, Camptothecin-20-O-ester of 4-formylphenoxyacetic acid] | 41.58 | 0 | 89.51 | 21.16 | 100 | 0 | 0 | >150 | 9 | 1.0 | 150
CCC1(OC(=O)COc2ccc(Cl)cc2C)C(=O)OCc2c1cc1n(c2=O)Cc2cc3ccccc3nc2-1 (centres unmarked) [Example 000127, Camptothecin-20-O-ester of 4-chloro-2-methylphenoxyacetic acid] | 47.33 | 0 | 88.97 | 31.46 | 86.48 | 0 | 0 | >150 | 13 | 2.3 | 217
CCC1(OC(=O)COc2ccc3c(C)c(Cl)c(=O)oc3c2)C(=O)OCc2c1cc1n(c2=O)Cc2cc3ccccc3nc2-1 (centres unmarked) [Example 000129] | 28.15 | 0 | 88.04 | 10.31 | 74.73 | 0 | 0 | 75 | 12 | 2.0 | 200
